Here are results for 8 compounds from ChEMBL document CHEMBL4334431, “Gramicidin S-inspired antimicrobial cyclodextrin to disrupt gram-negative and gram-positive bacterial membranes” (Medchemcomm, 2019).

In brackets after ≈: the same amount, converted by molar mass. Activity calls are given as the source filed them. The calls are words filed in the database; no cut-off is given here. Square brackets hold non-standard residues; d marks the D form. Peptide text beside a SMILES is read from it. Orn = NCCC[C@H](N)C(=O)O

Data set [1] can be described thus: Partition coefficient, log P of compound. The following applies: octanol/water. It counts as physicochemical.
A short description of data set [2]: Haemolytic activity in rabbit RBCs at 50 uM relative to control. The data set is classed as ADME, cell-based, Oryctolagus cuniculus, Erythrocyte. The following applies: rabbit red blood cells (erythrocytes), read-out: Activity.
For data set [3], the system named is Escherichia coli. Briefly: Antibacterial activity against Escherichia coli K12 W3110 assessed as bacterial growth inhibition after 20 hrs by liquid microdilution method. The data set is classed as functional.
The subject of the next data set is Salmonella typhimurium. Briefly: Antibacterial activity against Salmonella typhimurium LT2 assessed as bacterial growth inhibition after 20 hrs by liquid microdilution method. The data set is classed as functional, Salmonella enterica subsp. enterica serovar Typhimurium. The settings on record: Salmonella enterica, LT2, 20 h.
Another data set deals with Bacillus subtilis. Briefly: Antibacterial activity against Bacillus subtilis 168 assessed as bacterial growth inhibition after 20 hrs by liquid microdilution method. The data set is classed as functional. The settings on record: Bacillus subtilis, 168, 20 h.
For another data set, the system named is Pseudomonas aeruginosa. Nature of the data set: Antibacterial activity against Pseudomonas aeruginosa PAO1 assessed as bacterial growth inhibition after 20 hrs by liquid microdilution method. The data set is classed as functional.
Data set [4] relates to Staphylococcus aureus. Briefly: Antibacterial activity against Staphylococcus aureus FDA 209P assessed as bacterial growth inhibition after 20 hrs by liquid microdilution method. It counts as functional.
Data set [5] deals with Escherichia coli. Briefly: Induction of membrane permeabilization in Escherichia coli K12 W3110 assessed as decrease in cell viability. The data set is classed as functional, organism-based.
Data set [6] concerns Staphylococcus aureus. Nature of the data set: Induction of membrane permeabilization in Staphylococcus aureus FDA 209P assessed as increase in potassium efflux. The data set is classed as functional, organism-based.
Data set [7] concerns Escherichia coli. Nature of the data set: Induction of membrane permeabilization in Escherichia coli K12 W3110 assessed as increase in potassium efflux. The data set is classed as functional, organism-based.
Data set [8] concerns Staphylococcus aureus. Nature of the data set: Induction of membrane permeabilization in Staphylococcus aureus FDA 209P assessed as decrease in cell viability. The data set is classed as functional, organism-based.

As to `CC(C)CC(=O)O[C@@H]1[C@@H](OC(=O)CC(C)C)[C@H]2O[C@H]3[C@H](OC(=O)CC(C)C)[C@@H](OC(=O)CC(C)C)[C@@H](O[C@H]4[C@H](OC(=O)CC(C)C)[C@@H](OC(=O)CC(C)C)[C@@H](O[C@H]5[C@H](OC(=O)CC(C)C)[C@@H](OC(=O)CC(C)C)[C@@H](O[C@H]6[C@H](OC(=O)CC(C)C)[C@@H](OC(=O)CC(C)C)[C@@H](O[C@H]7[C@H](OC(=O)CC(C)C)[C@@H](OC(=O)CC(C)C)[C@@H](O[C@H]8[C@H](OC(=O)CC(C)C)[C@@H](OC(=O)CC(C)C)[C@@H](O[C@H]9[C@H](OC(=O)CC(C)C)[C@@H](OC(=O)CC(C)C)[C@@H](O[C@@H]1[C@@H](Cn1cc(CN)nn1)O2)O[C@@H]9Cn1cc(CN)nn1)O[C@@H]8Cn1cc(CN)nn1)O[C@@H]7Cn1cc(CN)nn1)O[C@@H]6Cn1cc(CN)nn1)O[C@@H]5Cn1cc(CN)nn1)O[C@@H]4Cn1cc(CN)nn1)O[C@@H]3Cn1cc(CN)nn1`, the logP in data set [1] was 0.6. Moreover, the hemolysis at 50 µM in [2] was found to be 87%. Further, the MIC is above 31 µM with Escherichia coli [3] (K-12 substr. W3110, 20 h); above 43 µM in the data set on Salmonella typhimurium; above 31 µM in the data set with Bacillus subtilis; above 43 µM in the data set with Pseudomonas aeruginosa (PAO1, 20 h); above 31 µM in the data set on Staphylococcus aureus [4].

In [1], `CC(=O)O[C@@H]1[C@@H](OC(C)=O)[C@H]2O[C@H]3[C@H](OC(C)=O)[C@@H](OC(C)=O)[C@@H](O[C@H]4[C@H](OC(C)=O)[C@@H](OC(C)=O)[C@@H](O[C@H]5[C@H](OC(C)=O)[C@@H](OC(C)=O)[C@@H](O[C@H]6[C@H](OC(C)=O)[C@@H](OC(C)=O)[C@@H](O[C@H]7[C@H](OC(C)=O)[C@@H](OC(C)=O)[C@@H](O[C@H]8[C@H](OC(C)=O)[C@@H](OC(C)=O)[C@@H](O[C@H]9[C@H](OC(C)=O)[C@@H](OC(C)=O)[C@@H](O[C@@H]1[C@@H](Cn1cc(CN)nn1)O2)O[C@@H]9Cn1cc(CN)nn1)O[C@@H]8Cn1cc(CN)nn1)O[C@@H]7Cn1cc(CN)nn1)O[C@@H]6Cn1cc(CN)nn1)O[C@@H]5Cn1cc(CN)nn1)O[C@@H]4Cn1cc(CN)nn1)O[C@@H]3Cn1cc(CN)nn1` had a lipophilicity (logP) of -2.2. The outcome in the data set on Escherichia coli [5], in the data set with Staphylococcus aureus [6], in the data set on Escherichia coli [7] and in the data set with Staphylococcus aureus [8] was Active. For the same compound, the hemolysis at 50 µM in data set [2] was determined as 1%. Besides, the minimum inhibitory concentration (MIC) was above 36 µM in the data set on Escherichia coli [3] (K-12 substr. W3110, 20 h); above 36 µM in the data set on Salmonella typhimurium; above 36 µM with Bacillus subtilis; above 36 µM in the data set with Pseudomonas aeruginosa (PAO1, 20 h); above 36 µM in the data set on Staphylococcus aureus [4].

In turn, `CC(C)C(=O)O[C@@H]1[C@@H](OC(=O)C(C)C)[C@H]2O[C@H]3[C@H](OC(=O)C(C)C)[C@@H](OC(=O)C(C)C)[C@@H](O[C@H]4[C@H](OC(=O)C(C)C)[C@@H](OC(=O)C(C)C)[C@@H](O[C@H]5[C@H](OC(=O)C(C)C)[C@@H](OC(=O)C(C)C)[C@@H](O[C@H]6[C@H](OC(=O)C(C)C)[C@@H](OC(=O)C(C)C)[C@@H](O[C@H]7[C@H](OC(=O)C(C)C)[C@@H](OC(=O)C(C)C)[C@@H](O[C@H]8[C@H](OC(=O)C(C)C)[C@@H](OC(=O)C(C)C)[C@@H](O[C@H]9[C@H](OC(=O)C(C)C)[C@@H](OC(=O)C(C)C)[C@@H](O[C@@H]1[C@@H](Cn1cc(CN)nn1)O2)O[C@@H]9Cn1cc(CN)nn1)O[C@@H]8Cn1cc(CN)nn1)O[C@@H]7Cn1cc(CN)nn1)O[C@@H]6Cn1cc(CN)nn1)O[C@@H]5Cn1cc(CN)nn1)O[C@@H]4Cn1cc(CN)nn1)O[C@@H]3Cn1cc(CN)nn1` displayed a logP in data set [1] of 0.24. Further, the hemolysis at 50 µM in [2] was found to be 101%. Moreover, the MIC in the data set with Escherichia coli [3] (K-12 substr. W3110, 20 h) was above 32 µM; in the data set with Salmonella typhimurium, above 31 µM; in the data set with Bacillus subtilis, above 32 µM; in the data set with Pseudomonas aeruginosa (PAO1, 20 h) it was 31 µM (≈ 94.8 µg/mL); with Staphylococcus aureus [4], above 32 µM.

Consider `CCCCCCCCCC(=O)N[C@@H](Cc1c[nH]c2ccccc12)C(=O)N[C@H](CC(N)=O)C(=O)N[C@@H](CC(=O)O)C(=O)N[C@@H]1C(=O)NCC(=O)N[C@@H](CCCN)C(=O)N[C@@H](CC(=O)O)C(=O)N[C@H](C)C(=O)N[C@@H](CC(=O)O)C(=O)NCC(=O)N[C@H](CO)C(=O)N[C@@H]([C@H](C)CC(=O)O)C(=O)N[C@@H](CC(=O)c2ccccc2N)C(=O)O[C@@H]1C`, for which the MIC in the data set with Staphylococcus aureus [4] came to 3 µM (≈ 4.86 µg/mL).

The compound `NCc1cn(C[C@H]2O[C@@H]3O[C@H]4[C@H](O)[C@@H](O)[C@@H](O[C@H]5[C@H](O)[C@@H](O)[C@@H](O[C@H]6[C@H](O)[C@@H](O)[C@@H](O[C@H]7[C@H](O)[C@@H](O)[C@@H](O[C@H]8[C@H](O)[C@@H](O)[C@@H](O[C@H]9[C@H](O)[C@@H](O)[C@@H](O[C@H]%10[C@@H](O)[C@H](O)[C@@H](O[C@H]2[C@H](O)[C@H]3O)O[C@@H]%10Cn2cc(CN)nn2)O[C@@H]9Cn2cc(CN)nn2)O[C@@H]8Cn2cc(CN)nn2)O[C@@H]7Cn2cc(CN)nn2)O[C@@H]6Cn2cc(CN)nn2)O[C@@H]5Cn2cc(CN)nn2)O[C@@H]4Cn2cc(CN)nn2)nn1` returned a log partition coefficient (logP) in data set [1] of -2.66. In addition, in [2], the hemolysis at 50 µM amounted to 0%. Also, the minimum inhibitory concentration (MIC) in the data set on Escherichia coli [3] (K-12 substr. W3110, 20 h) is above 45 µM; in the data set on Salmonella typhimurium, above 45 µM; in the data set on Bacillus subtilis, 22 µM (≈ 42.6 µg/mL); in the data set with Pseudomonas aeruginosa (PAO1, 20 h), above 45 µM; in the data set on Staphylococcus aureus [4], above 45 µM.

In the case of `CC(C)C[C@@H]1NC(=O)[C@H](CCCN)NC(=O)[C@H](C(C)C)NC(=O)[C@@H]2CCCN2C(=O)[C@@H](Cc2ccccc2)NC(=O)[C@H](CC(C)C)NC(=O)[C@H](CCCN)NC(=O)[C@H](C(C)C)NC(=O)[C@@H]2CCCN2C(=O)[C@@H](Cc2ccccc2)NC1=O` (cyclo(V[Orn]L[dF]PV[Orn]L[dF]P)), the MIC is 28 µM (≈ 32 µg/mL) in the data set on Escherichia coli [3] (K-12 substr. W3110, 20 h) and 4 µM (≈ 4.57 µg/mL) in the data set with Staphylococcus aureus [4].

In [1], `CCCC(=O)O[C@@H]1[C@@H](OC(=O)CCC)[C@H]2O[C@H]3[C@H](OC(=O)CCC)[C@@H](OC(=O)CCC)[C@@H](O[C@H]4[C@H](OC(=O)CCC)[C@@H](OC(=O)CCC)[C@@H](O[C@H]5[C@H](OC(=O)CCC)[C@@H](OC(=O)CCC)[C@@H](O[C@H]6[C@H](OC(=O)CCC)[C@@H](OC(=O)CCC)[C@@H](O[C@H]7[C@H](OC(=O)CCC)[C@@H](OC(=O)CCC)[C@@H](O[C@H]8[C@H](OC(=O)CCC)[C@@H](OC(=O)CCC)[C@@H](O[C@H]9[C@H](OC(=O)CCC)[C@@H](OC(=O)CCC)[C@@H](O[C@@H]1[C@@H](Cn1cc(CN)nn1)O2)O[C@@H]9Cn1cc(CN)nn1)O[C@@H]8Cn1cc(CN)nn1)O[C@@H]7Cn1cc(CN)nn1)O[C@@H]6Cn1cc(CN)nn1)O[C@@H]5Cn1cc(CN)nn1)O[C@@H]4Cn1cc(CN)nn1)O[C@@H]3Cn1cc(CN)nn1` displayed a lipophilicity (logP) of -0.06. Further, the result with Escherichia coli [5], in the data set on Staphylococcus aureus [6], in the data set with Escherichia coli [7] and in the data set on Staphylococcus aureus [8] was Active. The hemolysis at 50 µM in [2] turned out to be 102%. The minimum inhibitory concentration (MIC) with Escherichia coli [3] (K-12 substr. W3110, 20 h) is above 32 µM; with Salmonella typhimurium it was above 32 µM; in the data set with Bacillus subtilis, above 32 µM; in the data set with Pseudomonas aeruginosa (PAO1, 20 h) it was above 32 µM; with Staphylococcus aureus [4], above 32 µM.

Regarding COLISTIN, the minimum inhibitory concentration (MIC) turned out to be 0.7 µM with Escherichia coli [3] (K-12 substr. W3110) and 2 µM with Pseudomonas aeruginosa.
